In the CheMixHub viscosity set:

Experiment: xn = mol fraction of the nth substance listed

CCCCC(CC)COP(=O)(O)OCC(CC)CCCC (configuration not stated) + CCCO
303.15 K, 101 kPa
Conditions | viscosity [mPa·s]
x1 = 0.0388 | 2.397
x1 = 0.0845 | 3.204
x1 = 0.1765 | 4.994
x1 = 0.2522 | 6.571
x1 = 0.3449 | 8.647
x1 = 0.4687 | 11.29
x1 = 0.6123 | 13.8
x1 = 0.7274 | 15.62
x1 = 0.8109 | 16.82
x1 = 0.9261 | 18.45

CCCCOC(=O)C(C)O (configuration not stated) + CCCO
101 kPa, x1 = 0.8998
Conditions | viscosity [mPa·s]
303.15 K | 2.685
313.15 K | 2.075

C[N+](=O)[O-] + CCCO
viscosity [mPa·s]
Conditions | 293.15 K | 298.15 K | 303.15 K | 313.15 K
101 kPa, x1 = 0.1338 | – | 1.55 | – | –
101 kPa, x1 = 0.2584 | – | 1.24 | – | –
101 kPa, x1 = 0.3737 | – | 1.011 | – | –
101 kPa, x1 = 0.4815 | – | 0.8394 | – | –
101 kPa, x1 = 0.5819 | – | 0.7389 | – | –
101 kPa, x1 = 0.6764 | – | 0.6772 | – | –
101 kPa, x1 = 0.7649 | – | 0.6555 | – | –
101 kPa, x1 = 0.8479 | – | 0.6441 | – | –
101 kPa, x1 = 0.9262 | – | 0.6388 | – | –
101.33 kPa, x2 = 0.0501 | 0.636 | – | 0.565 | 0.508
101.33 kPa, x2 = 0.1001 | 0.633 | – | 0.56 | 0.501
101.33 kPa, x2 = 0.1501 | 0.64 | – | 0.563 | 0.502
101.33 kPa, x2 = 0.2 | 0.656 | – | 0.574 | 0.508
101.33 kPa, x2 = 0.25 | 0.681 | – | 0.591 | 0.519
101.33 kPa, x2 = 0.3001 | 0.713 | – | 0.612 | 0.534
101.33 kPa, x2 = 0.3501 | 0.753 | – | 0.639 | 0.553
101.33 kPa, x2 = 0.4001 | 0.795 | – | 0.67 | 0.576
101.33 kPa, x2 = 0.45 | 0.843 | – | 0.704 | 0.6
101.33 kPa, x2 = 0.5 | 0.892 | – | 0.74 | 0.629
101.33 kPa, x2 = 0.5501 | 0.949 | – | 0.785 | 0.661
101.33 kPa, x2 = 0.6001 | 1.01 | – | 0.832 | 0.697
101.33 kPa, x2 = 0.65 | 1.081 | – | 0.886 | 0.739
101.33 kPa, x2 = 0.7 | 1.162 | – | 0.95 | 0.789
101.33 kPa, x2 = 0.75 | 1.26 | – | 1.023 | 0.845
101.33 kPa, x2 = 0.8 | 1.375 | – | 1.112 | 0.912
101.33 kPa, x2 = 0.85 | 1.519 | – | 1.218 | 0.993
101.33 kPa, x2 = 0.9 | 1.693 | – | 1.349 | 1.094
101.33 kPa, x2 = 0.95 | 1.911 | – | 1.51 | 1.214

CC(=O)c1ccc(C)cc1 + CCNc1ccccc1
303.15 K, 100 kPa
Conditions | viscosity [mPa·s]
x2 = 0.0838 | 1.587
x2 = 0.1427 | 1.592
x2 = 0.2179 | 1.601
x2 = 0.2904 | 1.608
x2 = 0.3608 | 1.616
x2 = 0.4284 | 1.625
x2 = 0.4942 | 1.635
x2 = 0.5577 | 1.645
x2 = 0.6194 | 1.656
x2 = 0.6889 | 1.67
x2 = 0.7467 | 1.683
x2 = 0.8128 | 1.697
x2 = 0.9072 | 1.718

CCCCC(CC)COP(=O)(O)OCC(CC)CCCC (configuration not stated) + CCO
303.15 K, 101 kPa
Conditions | viscosity [mPa·s]
x1 = 0.0484 | 1.909
x1 = 0.086 | 2.633
x1 = 0.1497 | 3.874
x1 = 0.246 | 5.98
x1 = 0.3456 | 8.285
x1 = 0.4132 | 9.819
x1 = 0.5228 | 12.07
x1 = 0.6182 | 13.82
x1 = 0.7125 | 15.38
x1 = 0.8312 | 17.13
x1 = 0.9224 | 18.43

C[N+](=O)[O-] + CCO
viscosity [mPa·s]
Conditions | 293.15 K | 298.15 K | 303.15 K | 313.15 K
101 kPa, x1 = 0.1074 | – | 0.9963 | – | –
101 kPa, x1 = 0.2135 | – | 0.9148 | – | –
101 kPa, x1 = 0.3174 | – | 0.84 | – | –
101 kPa, x1 = 0.4199 | – | 0.777 | – | –
101 kPa, x1 = 0.5202 | – | 0.7236 | – | –
101 kPa, x1 = 0.6192 | – | 0.6847 | – | –
101 kPa, x1 = 0.7167 | – | 0.6557 | – | –
101 kPa, x1 = 0.8126 | – | 0.6418 | – | –
101 kPa, x1 = 0.9071 | – | 0.637 | – | –
101.33 kPa, x2 = 0.0501 | 0.625 | – | 0.553 | 0.501
101.33 kPa, x2 = 0.1001 | 0.609 | – | 0.538 | 0.486
101.33 kPa, x2 = 0.15 | 0.602 | – | 0.53 | 0.477
101.33 kPa, x2 = 0.2 | 0.601 | – | 0.527 | 0.472
101.33 kPa, x2 = 0.2501 | 0.604 | – | 0.527 | 0.471
101.33 kPa, x2 = 0.3001 | 0.612 | – | 0.531 | 0.472
101.33 kPa, x2 = 0.3502 | 0.622 | – | 0.538 | 0.476
101.33 kPa, x2 = 0.4008 | 0.636 | – | 0.547 | 0.482
101.33 kPa, x2 = 0.4501 | 0.653 | – | 0.561 | 0.491
101.33 kPa, x2 = 0.5001 | 0.672 | – | 0.577 | 0.502
101.33 kPa, x2 = 0.55 | 0.695 | – | 0.594 | 0.516
101.33 kPa, x2 = 0.6 | 0.72 | – | 0.612 | 0.531
101.33 kPa, x2 = 0.65 | 0.75 | – | 0.633 | 0.547
101.33 kPa, x2 = 0.7 | 0.785 | – | 0.665 | 0.569
101.33 kPa, x2 = 0.75 | 0.825 | – | 0.698 | 0.595
101.33 kPa, x2 = 0.8 | 0.872 | – | 0.732 | 0.625
101.33 kPa, x2 = 0.85 | 0.936 | – | 0.782 | 0.662
101.33 kPa, x2 = 0.9 | 1.006 | – | 0.835 | 0.705
101.33 kPa, x2 = 0.95 | 1.086 | – | 0.901 | 0.759

C[N+](=O)[O-] + CCOC(C)=O
298.15 K, 101 kPa
Conditions | viscosity [mPa·s]
x1 = 0.1688 | 0.4555
x1 = 0.3141 | 0.4808
x1 = 0.4395 | 0.5046
x1 = 0.55 | 0.526
x1 = 0.6469 | 0.5465
x1 = 0.733 | 0.5651
x1 = 0.8102 | 0.5828
x1 = 0.8801 | 0.5995
x1 = 0.9429 | 0.6154

CC(=O)c1ccc(C)cc1 + CN(C)c1ccccc1
viscosity [mPa·s], 101 kPa
Conditions | 303.15 K | 308.15 K
x2 = 0.0481 | 1.541 | 1.493
x2 = 0.0942 | 1.512 | 1.462
x2 = 0.1558 | 1.478 | 1.428
x2 = 0.2311 | 1.442 | 1.39
x2 = 0.2972 | 1.411 | 1.359
x2 = 0.3584 | 1.382 | 1.33
x2 = 0.4254 | 1.356 | 1.303
x2 = 0.4949 | 1.331 | 1.275
x2 = 0.5492 | 1.31 | 1.252
x2 = 0.5964 | 1.295 | 1.234
x2 = 0.6887 | 1.264 | 1.204
x2 = 0.7635 | 1.24 | 1.181
x2 = 0.8596 | 1.213 | 1.149

CC(=O)c1ccc(C)cc1 + CNC(C)=O
308.15 K, 101 kPa
Conditions | viscosity [mPa·s]
x1 = 0.0617 | 3.091
x1 = 0.1321 | 2.867
x1 = 0.2004 | 2.666
x1 = 0.2836 | 2.469
x1 = 0.3629 | 2.286
x1 = 0.4632 | 2.08
x1 = 0.5582 | 1.927
x1 = 0.689 | 1.722
x1 = 0.8305 | 1.588
